{
  "source": "patent US10975131B2",
  "about": "“Factor H-Fc immunotheraphy” (priority 2015, dated 2021)",
  "origin": "cited, not measured here",
  "tested_on": "N. gonorrhoeae strains",
  "note": "Like-named read-outs stand apart in the source and are kept apart here.",
  "data": [
    {"smiles": "CO/N=C(\\C(=O)N[C@@H]1C(=O)N2C(C(=O)O)=C(CSc3nc(=O)c(=O)[nH]n3C)CS[C@H]12)c1csc(N)n1", "note": "[Ceftriaxone, ceftriaxone]", "values": [
      {"measurement": "Ceftriaxone MIC", "setting": "strain CTXr (Spain), resistant", "result": "2 (resistant) ug/ml"},
      {"measurement": "Ceftriaxone MIC", "setting": "strain FA1090", "result": 0.004, "unit": "µg/mL"},
      {"measurement": "Ceftriaxone MIC", "setting": "strain H041, resistant", "result": "2-4 (resistant) ug/ml"},
      {"measurement": "Ceftriaxone MIC", "setting": "strain MS11", "result": 0.032, "unit": "µg/mL"},
      {"measurement": "Ceftriaxone MIC", "setting": "strain NJ-1, agar dilution", "result": 0.023, "unit": "µg/mL"},
      {"measurement": "Ceftriaxone MIC", "setting": "strain NJ-11, agar dilution", "result": 0.047, "unit": "µg/mL"},
      {"measurement": "Ceftriaxone MIC", "setting": "strain NJ-15, agar dilution", "result": 0.047, "unit": "µg/mL"},
      {"measurement": "Ceftriaxone MIC", "setting": "strain NJ-19, agar dilution", "result": 0.032, "unit": "µg/mL"},
      {"measurement": "Ceftriaxone MIC", "setting": "strain NJ-26, agar dilution", "result": 0.032, "unit": "µg/mL"},
      {"measurement": "Ceftriaxone MIC", "setting": "strain NJ-27, agar dilution", "result": 0.064, "unit": "µg/mL"},
      {"measurement": "Ceftriaxone MIC", "setting": "strain NJ-36, agar dilution", "result": 0.032, "unit": "µg/mL"},
      {"measurement": "Ceftriaxone MIC", "setting": "strain NJ-44, agar dilution, elevated MIC to CRO", "result": "0.125 (elevated ug/ml"},
      {"measurement": "Ceftriaxone MIC", "setting": "strain NJ-48, agar dilution, elevated MIC to CRO", "result": "0.125 (elevated ug/ml"},
      {"measurement": "Ceftriaxone MIC", "setting": "strain NJ-60, agar dilution, resistant", "result": "0.380 (resistant) ug/ml"}
    ]}
  ]
}
